# Read-outs that look alike come from different tables or passages of the source.
# What was measured:
# Type in all cases: cell-based
# [1] = system: Mycobacterium tuberculosis (MTB); experiment: MIC by proportions method (NCCLS M24-T, 1995), 82 MTB strains; details: compared with the other quinolones
# Salmonella spp. = experiment: MIC by agar dilution (NCCLS M7-A4), 288 enteropathogenic isolates, eight quinolones; details: for MIC: ciprofloxacin MIC ≥[…], read-out: MIC
# Hafnia alvei = experiment: as above; details: Hafnia alvei (n = 32)
# Streptococcus pyogenes = experiment: MIC by agar dilution (NCCLS), 411 isolates Buenos Aires 1998-99; details: Streptococcus pyogenes (n = 69)
# Klebsiella pneumoniae [2] = experiment: MIC by NCCLS reference broth microdilution, 450 respiratory tract pathogens; details: for MIC50 / MIC90: Klebsiella pneumoniae
# Haemophilus influenzae [3] = experiment: MIC by broth microdilution (NCCLS), dried MicroScan panels, clinical isolates 1998-1999; details: for MIC90: Haemophilus influenzae
# Haemophilus influenzae [4] = experiment: MIC by two-fold serial agar dilution, Sensitivity Disk agar-N (Kitasato isolates); details: Haemophilus influenzae (24)
# Staphylococcus aureus = experiment: microbe, parasite or virus in culture
# E. coli = experiment: microbe, parasite or virus in culture; details: for MIC50 / MIC: Escherichia coli
# Enterococcus faecalis = experiment: MIC by NCCLS broth microdilution, 1100 Japanese clinical isolates 1997-1998; details: for MIC90 / MIC50: Enterococcus faecalis
# Enterococcus gallinarum = experiment: as above
# Klebsiella oxytoca = experiment: as above; details: Klebsiella oxytoca (n=40)
# Enterobacter cloacae = experiment: as above; details: Enterobacter cloacae (n=40)
# Morganella morganii = experiment: as above; details: Morganella morganii (n=40)
# Klebsiella pneumoniae [5] = experiment: MIC by agar dilution (NCCLS), 322 nosocomial Gram negative isolates, Athens 1998; details: n = 56 isolates
# Proteus mirabilis = experiment: as above; details: Proteus mirabilis; n = 57 isolates
# Enterobacter spp. = experiment: as above; details: n = 57 isolates
# Enterococcus faecium = experiment: MIC by agar macrodilution (NCCLS), 373 Gram positive isolates, Athens 1998
# [6] = extended spectrum β-lactamase negative (n = 30)
# [7] = extended spectrum β-lactamase positive (n = 20)
# [8] = Haemophilus influenzae (300 isolates)
# [9] = Enterococcus faecalis ciprofloxacin resistant (n=15)
# [10] = Enterococcus faecalis ciprofloxacin susceptible (n=24)
structure (smiles),measurement,setting,value
"CO/N=C1\CN(c2nc3c(cc2F)c(=O)c(C(=O)O)cn3C2CC2)CC1CN (racemic) [Gemifloxacin, (R,S)-7-(3-aminomethyl-4-methoxyiminopyrrolidin-1-yl)-1-cyclopropyl-6-fluoro-4-oxo-1,4-dihydro-1,8-naphthyridine-3-carboxylic acid]",in vitro activity against MTB,[1],lower in vitro activity
same,MIC,Salmonella spp.; S. hadar (n = 2),0.25 mg/L
same,MIC,Salmonella spp.; S. newport (n = 1),0.25 mg/L
same,MIC,Salmonella spp.; S. virchow (n = 2),0.12 mg/L
same,% Susceptible,Salmonella spp.; Salmonella spp. (n = 106),100%
same,MIC50,Salmonella spp.; Salmonella spp. (n = 106),0.03 mg/L
same,MIC90,Salmonella spp.; Salmonella spp. (n = 106),0.12 mg/L
same,MIC Range,Salmonella spp.; Salmonella spp. (n = 106),≤0.015 to 0.25 mg/L
same,MIC,"Salmonella spp.; Salmonella, S. tshiongwe (n = 1)",0.25 mg/L
same,MICs lower than those of the other fluoroquinolones studied,Salmonella spp.; six Salmonella spp. with ciprofloxacin MICs ≥[…],1-4 dilutions
same,% Susceptible,Hafnia alvei,100%
same,MIC50,Hafnia alvei,0.03 mg/L
same,MIC90,Hafnia alvei,0.03 mg/L
same,MIC Range,Hafnia alvei,≤0.015 to 0.06 mg/L
same,MIC Range,Streptococcus pyogenes,≤0.004 to 0.125 mg/L
same,MIC90,Streptococcus pyogenes; read-out: MIC90,0.03 mg/L
same,MIC Range,Klebsiella pneumoniae [2]; Klebsiella pneumoniae (n = 50),≤0.0075 to 1 mg/L
same,MIC50,Klebsiella pneumoniae [2]; Klebsiella pneumoniae (n = 50),0.03 mg/L
same,MIC90,Klebsiella pneumoniae [2]; Klebsiella pneumoniae (n = 50),0.25 mg/L
same,MIC50,Klebsiella pneumoniae [2]; [6],0.015 mg/L
same,MIC90,Klebsiella pneumoniae [2]; [6],0.06 mg/L
same,MIC50,Klebsiella pneumoniae [2]; [7],0.25 mg/L
same,MIC90,Klebsiella pneumoniae [2]; [7],0.5 mg/L
same,MIC Range,Klebsiella pneumoniae [2]; [6],≤0.0075 to 0.12 mg/L
same,MIC Range,Klebsiella pneumoniae [2]; [7],0.03 to 1 mg/L
same,activity superior to that of levofloxacin,Haemophilus influenzae [3]; H. influenzae,four-fold
same,MIC50,Haemophilus influenzae [3]; [8],0.004 mg/L
same,MIC Range,Haemophilus influenzae [3]; [8],≤0.0015 to 0.12 mg/L
same,MIC90,Haemophilus influenzae [3]; [8],0.008 mg/L
same,MIC90,Haemophilus influenzae [3]; β-lactamase negative (234),0.008 mg/L
same,MIC90,Haemophilus influenzae [3]; β-lactamase positive (66),0.03 mg/L
same,MIC50,Haemophilus influenzae [4],0.016 mg/L
same,MIC90,Haemophilus influenzae [4],0.016 mg/L
same,MIC Range,Haemophilus influenzae [4],0.008 to 0.031 mg/L
same,MIC Range,Staphylococcus aureus; Methicillin-resistant (38),0.031 to 32 mg/L
same,MIC Range,Staphylococcus aureus; Methicillin-susceptible (9),0.031 to 0.25 mg/L
same,increase of MIC,"Staphylococcus aureus; S. aureus KU2240 with a single mutation in NorA, DNA gyrase or topoisomerase IV",2-4 fold
same,MIC90,"Staphylococcus aureus; Staphylococcus aureus, Methicillin-susceptible (9), read-out: MIC90",0.25 mg/L
same,MIC,"Staphylococcus aureus; Staphylococcus aureus, S. aureus KU2240, mutant type Wild (wild strain)",0.031 mg/L
same,MIC,"Staphylococcus aureus; Staphylococcus aureus, S. aureus KU2240, read-out: MIC",0.031 mg/L
same,MIC,"Staphylococcus aureus; Staphylococcus aureus, S. aureus KU2241, mutant type NorA (efflux-mediated quinolone resistant)",0.063 mg/L
same,MIC,"Staphylococcus aureus; Staphylococcus aureus, S. aureus KU2242, mutant type T (DNA topoisomerase IV)",0.063 mg/L
same,MIC,"Staphylococcus aureus; Staphylococcus aureus, S. aureus KU2244, mutant type G (DNA gyrase)",0.125 mg/L
same,MIC,"Staphylococcus aureus; Staphylococcus aureus, S. aureus KU2246, mutant type T (DNA topoisomerase IV)",0.125 mg/L
same,MIC90,"E. coli; E. coli (13 strains), quinolone-resistant",0.25 mg/L
same,MIC50,"E. coli; E. coli (13 strains), quinolone-resistant, read-out: MIC50",0.031 mg/L
same,MIC,"E. coli; E. coli KU1029, mutant type SP (spontaneous mutant in the DNA gyrase)",0.031 mg/L
same,MIC,"E. coli; E. coli KU1030, mutant type SP",0.031 mg/L
same,MIC,"E. coli; E. coli KU1031, mutant type SP",0.031 mg/L
same,MIC,"E. coli; E. coli KU1032, mutant type SP",0.125 mg/L
same,MIC,"E. coli; E. coli KU1033, mutant type SP",0.016 mg/L
same,MIC,"E. coli; E. coli KU1034, mutant type GA (DNA gyrase A)",0.25 mg/L
same,MIC,"E. coli; E. coli KU1035, mutant type GA (DNA gyrase A)",0.25 mg/L
same,MIC,"E. coli; E. coli KU1036, mutant type GB (DNA gyrase B)",0.031 mg/L
same,MIC,"E. coli; E. coli KU1038, mutant type SP",0.031 mg/L
same,MIC,"E. coli; E. coli KU1039, mutant type SP",0.125 mg/L
same,MIC,"E. coli; E. coli KU1040, mutant type SP",≤ 0.008 mg/L
same,MIC,"E. coli; E. coli KU1041, mutant type SP",0.25 mg/L
same,MIC,"E. coli; E. coli KU1042, mutant type SP",0.063 mg/L
same,MIC50,E. coli; E. coli mutated in the DNA gyrase,0.032 mg/L
same,MIC90,Enterococcus faecalis,0.125 mg/L
same,MIC Range,Enterococcus faecalis; [9],0.063 to 32 mg/L
same,MIC Range,Enterococcus faecalis; [10],0.063 to 0.125 mg/L
same,MIC50,Enterococcus faecalis; [9],1 mg/L
same,MIC90,"Enterococcus faecalis; Enterococcus faecalis ciprofloxacin resistant (n=15), read-out: MIC90",8 mg/L
same,MIC50,Enterococcus faecalis; [10],0.063 mg/L
same,MIC,"Enterococcus gallinarum; Enterococcus gallinarum (vanC1), strain TMS3",0.125 mg/L
same,MIC,"Enterococcus gallinarum; Enterococcus gallinarum, GALLINARUM",0.125 mg/L
same,MIC,"Enterococcus gallinarum; Enterococcus gallinarum, GALLINARUM, Enterococcus gallinarum (vanC1), strain TMS1, read-out: MIC",0.032 mg/L
same,MIC,"Enterococcus gallinarum; Enterococcus gallinarum, GALLINARUM, Enterococcus gallinarum (vanC1), strain TMS4, read-out: MIC",0.032 mg/L
same,MIC50,Klebsiella oxytoca,0.032 mg/L
same,MIC90,Klebsiella oxytoca,4 mg/L
same,MIC Range,Klebsiella oxytoca,≤0.008 to 32 mg/L
same,MIC50,Enterobacter cloacae,0.032 mg/L
same,MIC90,Enterobacter cloacae,1 mg/L
same,MIC Range,Enterobacter cloacae,≤0.008 to 2 mg/L
same,MIC Range,Morganella morganii,0.016 to 16 mg/L
same,MIC50,Morganella morganii; read-out: MIC50,0.063 mg/L
same,MIC90,Morganella morganii; read-out: MIC90,0.25 mg/L
same,MIC50,Klebsiella pneumoniae [5]; Klebsiella pneumoniae,0.06 mg/L
same,MIC90,Klebsiella pneumoniae [5]; Klebsiella pneumoniae,0.5 mg/L
same,MIC Range,Klebsiella pneumoniae [5],≤0.03 to 4 mg/L
same,MIC50,Proteus mirabilis,0.25 mg/L
same,MIC90,Proteus mirabilis,16 mg/L
same,MIC50,"Enterobacter spp.; Enterobacter, read-out: MIC50",0.06 mg/L
same,MIC90,"Enterobacter spp.; Enterobacter, read-out: MIC90",16 mg/L
same,MIC Range,Enterobacter spp.,≤0.03 to 64 mg/L
same,MIC distribution (µg/ml) 0.03,Enterococcus faecium,0
same,MIC distribution (µg/ml) 0.06,Enterococcus faecium,1
same,MIC distribution (µg/ml) 0.125,Enterococcus faecium,4
same,MIC distribution (µg/ml) 0.25,Enterococcus faecium,0
same,MIC distribution (µg/ml) 0.5,Enterococcus faecium,4
same,MIC distribution (µg/ml) 1,Enterococcus faecium,0
same,MIC distribution (µg/ml) 2,Enterococcus faecium,0
same,MIC distribution (µg/ml) 4,Enterococcus faecium,2
same,MIC distribution (µg/ml) 16,Enterococcus faecium,3
same,MIC distribution (µg/ml) ≤0.015,Enterococcus faecium,0
same,MIC distribution (µg/ml) ≥32,Enterococcus faecium,0
same,MIC50,"Enterococcus faecium; Enterococcus faecium, n = 14 isolates, read-out: MIC50",0.25 mg/L
same,MIC90,"Enterococcus faecium; Enterococcus faecium, n = 14 isolates, read-out: MIC90",16 mg/L
same,MIC Range,Enterococcus faecium; n = 14 isolates,0.06 to 16 mg/L
same,MIC distribution (µg/ml) 8,"Enterococcus faecium; number of isolates at MIC 8 µg/ml, n = 14",8

# Source: patent EP1561465A2, “Methods of use of fluoroquinolone compounds against bacteria” (LG Life Sciences, Ltd., priority 1999, dated 2001)
